The nature of data set [1]: Glucose clearance in somatostatin-infused minipigs after glucose bolus. Type of data set: in vivo. Particulars: transbuccal strips of NP-insulin, μg DoD/strip, period of 40 to 60 minutes, FIG. 8. As for the experimental part:
Minipigs were infused with somatostatin in order to suppress endogenous insulin secretion. They were then given a bolus injection of 0.33 gm/kg glucose. After thirty minutes the test item was given and the first order rate constant for glucose clearance (k) was calculated for the period of 40 to 60 minutes.
Test items included: 1. Strips containing 4 U insulin on nanoparticle applied transbuccal; 2. Strips containing 4 U insulin on nanoparticle dodecyl-β-D-maltoside applied transbuccal; 3. Subcutaneous (s.c.) nanoparticle-insulin (NP-insulin); 4. S.C. commercial Humalog® insulin.

For data set [2], the system named is insulin-carrying gold nanoparticles ("GNPI"). Briefly: Insulin release from insulin-carrying gold nanoparticles incubated with permeation enhancer, BCA protein assay of supernatant. Type of data set: physicochemical. On the procedure:
[…] Samples were mixed and left at RT for 1 h, they were then spun for 2 min at 18000 g and 10 μl of each supernatant was measured by BCA protein assay to determine insulin release, a blank and a positive control in which no TDM was added and the sample was not spun were also included.
The sample tubes were vortexed and left at RT for a further 95 h (for a total of 96 hours) and re-assayed as above to see if there was any further indication of insulin release.
In a follow on experiment lysalbinic acid (LAA) was also tested as an alternative potential permeation enhancer, the same protocol was used as for TDM above.

Molecules are shown by their SMILES. Entries after “also recorded” stand apart in the source; their conditions may differ.

Take `CCCCCCCCCCCCO[C@@H]1O[C@H](CO)[C@@H](O[C@H]2O[C@H](CO)[C@@H](O)[C@H](O)[C@H]2O)[C@H](O)[C@H]1O` [DoD, dodecyl-β-D-maltoside]: the “first order rate constant for glucose clearance (k) against dosage of DoD” value in data set [1] is “apparent dose-dependence; also recorded: clear dose-dependence”.

Turning to `CCCCCCCCCCCCCCO[C@@H]1O[C@H](CO)[C@@H](O[C@H]2O[C@H](CO)[C@@H](O)[C@H](O)[C@H]2O)[C@H](O)[C@H]1O` [TDM, tetradecyl-D-maltoside], the “insulin release by TDM over 0 TDM control” value in data set [2] (1 h at RT in water, 2.5-67.5 μg TDM in 0.5 ml, FIG. 2) is “less than 5%”. Also, the “further insulin release after a total of 96 hours” value in data set [2] (96 h at RT in water, FIG. 3) was “no further release”. Further, in data set [2] (96 hours of incubation in solution), the “loss of bound active from active-carrying nanoparticle” value is given as “without significant loss of bound active”. For the same compound, the “percentage of insulin released against percentage of permeation enhancer” value in data set [2] (insulin level of 75 U/ml, FIG. 5 and FIG. 6) is “lack of effect”. Moreover, the “effect on insulin release from GNPI (overall conclusion)” value in data set [2] (range of concentrations, in water, short or medium term) is on record as “no gross effect”.

The values are drawn from patent publication US20140220135A1, “PERMEATION ENHANCED ACTIVE-CARRYING NANOPARTICLES” (Midatech Limited, priority 2013, published 2014).
